Source: PMC3724117 (British Journal of Pharmacology, 2013)
Read-outs that look alike come from different tables or passages of the source. Blank lines part the entries; values can stand above or below the compound they belong to.

Key:
[1] = test system: histamine-evoked Ca^2+ signals; type: cell-based, human; details: for IC50: Homo sapiens
[2] = test system: intracellular Ca^2+ stores; assay: Ca2+ content of the intracellular stores of human ASMC; type: cell-based; details: 2-APB, stores assessed with ionomycin 1 μM
[3] = molecular target: EP4 receptors (Homo sapiens, UniProt P35408); type: cell-based
[4] = molecular target: EP2 receptors (Homo sapiens, UniProt P43116); type: cell-based
[5] = molecular target: EP2 receptor; details: 2000, cited from earlier work; for pKD, EP2 receptor: reported affinity, ref Abramovitz et al.
[6] = test system: human ASMC; assay: Direct effect of drug alone on [Ca2+]i in human ASMC; type: cell-based
[7] = test system: AC activity; assay: cAMP accumulation in human ASMC, HitHunter cAMP HS+ assay; type: cell-based
[8] = test system: EP4 receptor; details: cited from earlier work
[9] = test system: AC activity; assay: cAMP accumulation in human ASMC, 3H-adenine-labelling assay; type: cell-based; details: read-out: pEC50 for cAMP accumulation (converted)
[10] = read-out: [Ca2+]i, pIC50, Control (converted)

Sequence of EP4 receptors (P35408 whole entry): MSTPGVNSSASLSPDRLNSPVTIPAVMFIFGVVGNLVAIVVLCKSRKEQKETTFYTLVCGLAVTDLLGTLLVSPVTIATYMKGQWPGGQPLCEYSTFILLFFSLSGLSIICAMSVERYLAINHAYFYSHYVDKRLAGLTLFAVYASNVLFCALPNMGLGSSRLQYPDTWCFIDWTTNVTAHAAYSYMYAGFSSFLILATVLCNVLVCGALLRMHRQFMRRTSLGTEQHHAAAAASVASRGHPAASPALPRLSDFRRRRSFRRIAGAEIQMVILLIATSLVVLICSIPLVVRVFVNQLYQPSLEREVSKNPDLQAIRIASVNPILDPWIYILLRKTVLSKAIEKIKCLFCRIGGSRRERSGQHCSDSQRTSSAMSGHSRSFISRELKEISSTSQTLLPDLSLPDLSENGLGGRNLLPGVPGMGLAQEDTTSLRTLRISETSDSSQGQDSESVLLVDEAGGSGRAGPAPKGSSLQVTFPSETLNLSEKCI
Sequence of EP2 receptors (P43116 whole entry): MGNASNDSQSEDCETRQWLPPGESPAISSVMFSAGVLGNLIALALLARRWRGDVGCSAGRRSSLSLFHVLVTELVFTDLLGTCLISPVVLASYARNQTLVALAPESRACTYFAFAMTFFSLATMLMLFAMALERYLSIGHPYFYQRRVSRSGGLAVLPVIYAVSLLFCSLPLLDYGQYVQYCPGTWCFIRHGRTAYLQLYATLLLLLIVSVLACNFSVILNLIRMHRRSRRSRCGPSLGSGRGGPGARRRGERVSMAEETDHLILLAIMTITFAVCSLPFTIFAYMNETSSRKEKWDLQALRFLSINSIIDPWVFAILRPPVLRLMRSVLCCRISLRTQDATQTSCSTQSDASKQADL

SMILES: COc1ccc2c(c1)c(CC(=O)O)c(C)n2C(=O)c1ccc(Cl)cc1 [indomethacin, Indomethacin]
effect on histamine-evoked Ca2+ signals ([1]; indomethacin 10 μM, 5 min): nor indomethacin, an inhibitor of cyclooxygenases (Figure 1F), had any effect

SMILES: NCCOB(c1ccccc1)c1ccccc1 [2-APB, 2-aminoethoxydiphenyl borate]
effect on Ca2+ signals evoked by histamine ([1]; 2-APB 5 min before, histamine 3 μM or 1 mM, Ca2+-free HBS): concentration-dependent inhibition
effect on Ca2+ content of the intracellular stores [2]: substantial loss

IC50 ([1]; read-out: pIC50 for inhibition of Ca2+ signals evoked by histamine (converted)): 1740 nM
SMILES: COc1ccc2c(c1)CC[C@@H]1[C@@H]2CC[C@]2(C)[C@@H](NCCCCCCN3C(=O)C=CC3=O)CC[C@@H]12 [U73122, 1-[6-[[(17β)-3-methoxyestra-1,3,5(10)-trien-17-yl]amino]hexyl]-1H-pyrrole-2,5-dione]

SMILES: COc1ccc([C@H]2N[C@H](C(=O)O)Cc3c2[nH]c2ccccc32)cc1CN1CCN(c2ccccc2F)CC1 [trans-Ned-19, (1R,3S)-1-[3-[[4-(2-fluorophenyl)piperazin-1-yl]methyl]-4-methoxyphenyl]-2,3,4,9-tetrahydro-1H-pyrido[3,4-b]indole-3-carboxylic acid]
effect on responses to histamine ([1]; trans-Ned-19 1 μM, 5 min): unaffected

SMILES: CC(C)OC(=O)CCC/C=C\C[C@@H]1[C@@H](CC[C@@H](O)CCc2ccccc2)[C@H](O)C[C@@H]1O [latanoprost]
effect on histamine-evoked Ca2+ signals ([1]; latanoprost 100 nM, histamine 3 μM): no effect

SMILES: O=C(O)CCCCCC[C@H]1C(=O)NC(=O)N1CCC(O)C1CCCCC1 (stereo partly drawn) [BW 245C, (4S)-(3-[(3R,S)-3-cyclohexyl-3-hydroxypropyl]-2,5-dioxo)-4-imidazolidineheptanoic acid]
effect on histamine-evoked Ca2+ signals ([1]; BW 245C 10 nM, histamine 3 μM): no effect

ΔpIC50 (pIC50 control − pIC50 +antagonist) of L902,688 ([1]; GW627368X 1 μM, histamine 3 μM): 2.20 ± 0.28
ΔpIC50 (pIC50 control − pIC50 +antagonist) of PGE2 ([1]; GW627368X 1 μM, histamine 3 μM): 0.24 ± 0.08
ΔpIC50 (pIC50 control − pIC50 +antagonist) of butaprost ([1]; GW627368X 1 μM, histamine 3 μM): −0.21 ± 0.14
Kd [3]: 6.31 nM
SMILES: CCOc1c2c(c(OCC)c3ccccc13)C(=O)N(c1ccc(CC(=O)NS(=O)(=O)c3ccccc3)cc1)C2 [GW627368X, 2-[4-(4,9-diethoxy-3-oxo-1H-benzo[f]isoindol-2-yl)phenyl]-N-phenylsulfonylacetamide]

SMILES: CC(C)[C@@]1(O)[C@@H](OC(=O)c2ccc[nH]2)[C@@]2(O)[C@@]3(C)C[C@]4(O)O[C@@]5([C@H](O)[C@@H](C)CC[C@]35O)[C@@]2(O)[C@@]14C [ryanodine, Ryanodine]
effect on responses to histamine ([1]; ryanodine 100 μM, 5 min): unaffected

Kd [4]: 2510 nM
ΔpIC50 (pIC50 control − pIC50 +antagonist) of L902,688 ([1]; AH6809 30 μM, histamine 3 μM): −0.01 ± 0.27
ΔpIC50 (pIC50 control − pIC50 +antagonist) of PGE2 ([1]; AH6809 30 μM, histamine 3 μM): 0.62 ± 0.13
ΔpIC50 (pIC50 control − pIC50 +antagonist) of butaprost ([1]; AH6809 30 μM, histamine 3 μM): 1.12 ± 0.15
SMILES: CC(C)Oc1ccc2c(=O)c3cc(C(=O)O)ccc3oc2c1 [AH6809, 6-isopropoxy-9-oxoxanthene-2-carboxylic acid]
pKD, EP2 receptor [5]: 5.9

SMILES: Cn1c(=O)c2c(ncn2C)n(C)c1=O [caffeine]
effect on [Ca2+]i ([6]; caffeine 10 mM): no effect

IC50 [1, 10]: 6.03 nM
difference between functional pIC50 and published binding affinity (pKD) ([1]; pIC50 8.22 vs pKD 7.04): more than 10 fold
EC50 for cAMP accumulation relative to PGE2 (higher) ([7]; butaprost vs PGE2): ~10 fold
SMILES: CCCC1([C@H](O)C/C=C/[C@H]2[C@H](O)CC(=O)[C@@H]2CCCCCCC(=O)OC)CCC1 [Butaprost]
affinity for human EP2 receptors relative to PGE2 (lower) ([5]; ref Narumiya et al., 1999, Abramovitz et al.): ~20 fold
pKD, EP2 receptor [5]: 7.04

[Ca2+]i, pIC50, Control ([1]; histamine 3 μM, agonist alone): 9.52 ± 0.25 (3) /M
cAMP, pEC50, Control ([7]; HitHunter HS+ assay, 5 min): 7.76 ± 0.11 (3) /M
SMILES: O=C1CC[C@H](/C=C/[C@@H](O)C(F)(F)c2ccccc2)N1CCCCCCc1nn[nH]n1 [L902,688, 5-[(1E,3R)-4,4-difluoro-3-hydroxy-4-phenyl-1-buten-1-yl]-1-[6-(2H-tetrazol-5R-yl)hexyl]-2-pyrrolidinone]
affinity for EP4 receptors relative to PGE2 (greater) ([8]; ref Supporting Information Table S4): approximately twofold
pKD, EP4 receptor ([8]; reported affinity, ref Young et al., 2004): 9.4

SMILES: COc1ccc2c(c1)CC[C@@H]1[C@@H]2CC[C@]2(C)[C@@H](NCCCCCCN3C(=O)CCC3=O)CC[C@@H]12 [U73343, 1-[6-[[(17β)-3-methoxyestra-1,3,5(10)-trien-17-yl]amino]hexyl]-2,5-pyrrolidinedione]
effect on Ca2+ signals evoked by histamine ([1]; U73343 ≤10 μM, histamine 100 μM): no effect

SMILES: CS(=O)(=O)NC(=O)CCC/C=C\C[C@H]1C(=O)C[C@@H](O)[C@@H]1/C=C/[C@@H](O)COc1ccccc1 [Sulprostone, sulprostone]
effect on histamine-evoked Ca2+ signals ([1]; sulprostone 1 μM, histamine 3 μM): no effect

EC50 [9]: 214 nM
IC50 [1, 10]: 0.537 nM
SMILES: CCCCC[C@H](O)/C=C/[C@H]1[C@H](O)CC(=O)[C@@H]1C/C=C\CCCC(=O)O [PGE2, Prostaglandin E2]
effect on [Ca2+]i ([6]; PGE2 alone (10 μM)): no effect
